For series [1] the following is noted: high doses of pramipexole; cited from earlier work.
The conditions of series [2]: cited from earlier work; for improvement over baseline versus placebo on the MADRS: endpoint week 8, pramipexole 1.0 mg/day, fluoxetine 20 mg/day.

“Also recorded” adds a separate entry of the source.

We go through three compounds from patent US20220071976A1 (CHASE THERAPEUTICS CORPORATION, priority 2018, published 2022).

On to `CCCN[C@H]1CCc2nc(N)sc2C1` [pramipexole, (S)-6-propylamino-4,5,6,7-tetrahydro-1,3-benzothiazole-2-amine], for which the “activity in animal behavior tests simulating symptoms of depression” value in series [1] is recorded as “active”. Also, the “subjects reaching first intolerable dose FID-1” value (human, in vivo, po) is given as “All subjects reached FID-1”. In addition, the dose limiting toxicity entry (pramipexole alone, single oral increasing doses) is given as “gastro-intestinal adverse events in all subjects”. For the same compound, the “improvement over baseline versus placebo on the MADRS” value in series [2] was “significantly better improvement over baseline than the placebo group”. Further, in series [2] (pramipexole 5.0 mg/day group), the patients reporting nausea was 76%; the patients reporting vomiting is on record as 39%; the “patients who discontinued treatment prematurely, mainly because of adverse events” value is recorded as 57.6%. The “improvement at week 8 (change from baseline)” value in series [2] (pramipexole 5.0 mg/day group, scale not stated, no p value because of high drop-out rate) was −15.00.

Consider `CNCCC(Oc1ccc(C(F)(F)F)cc1)c1ccccc1` (stereo not shown) [fluoxetine], for which the “improvement over baseline versus placebo on the MADRS” value in series [2] was “significantly better improvement over baseline than the placebo group”.

Consider `O=c1[nH]c2ccccc2n1CCCN1CCC(n2c(=O)[nH]c3cc(Cl)ccc32)CC1` [domperidone, 5-chloro-1-(1-[3-(2-oxo-2,3-dihydro-1H-benzo[d]imidazol-1-yl)propyl]piperidin-4-yl)-1H-benzo[d]imidazol-2(3H)-one], for which the “effect on dose-limiting gastro-intestinal adverse events of pramipexole” value (concomitant oral administration of domperidone with high doses of pramipexole) is on record as “prevented the occurrence of dose-limiting gastro-intestinal adverse events; also recorded: attenuated dose-limiting gastro-intestinal adverse effects”.
